Test results: patent US12435062B2, “Amide compounds and uses thereof” (HUTCHISON MEDIPHARMA LIMITED, priority 2020, dated 2025)

Tests used:
[1] = target: Recombinant human CSF1R kinase (Homo sapiens (Human), UniProt P07333); format: biochemical; details: Z-LYTE Tyr 1 peptide substrate
Method: Measurement of CSF1R Kinase Activity at Molecular Level
1. Reagents and materials:
• Z-LYTE™ Tyr 1 peptide substrate: Invitrogen, PV3190; • 5× kinase buffer: Invitrogen, PV3189; • 10 mM ATP: Invitrogen, PV3227; • Development reagent B: Invitrogen, PV3295; • Development buffer: Invitrogen, P3127; • Stopping solution: Invitrogen, P3094; • Recombinant human CSF1R kinase: Invitrogen, PR4598A; • 384 well plate, black: Corning, 3575; Envision: Perkin Elmer. 2. Preparation of reaction solutions
1) 1.33× kinase buffer: 5× kinase buffer was diluted to a 1.33× kinase buffer with ddH2O.
2) Dilution of a 4× test compound: The test compound was diluted in gradient to 4-fold the reaction concentration and the concentration of DMSO was kept at 8%. The final concentration of the compound in reaction was: 1, 0.33, 0.11, 0.037, 0.012, 0.004, 0.0014, 0.00046 μM, and the final concentration of DMSO was 2%.
3) A mixture of kinase/peptide substrate: In 1.33× kinase buffer, the kinase and Z-LYTE™ Tyr 1 peptide substrate were diluted to 0.12 μg/mL and 4 μM, respectively, to prepare a mixture of kinase/peptide substrate. The mixture was mixed gently with a pipette.
4) A phosphorylated peptide substrate solution (PP solution): 0.4 μL of Z-LYTE™ Tyr1 phosphorylated peptide substrate was added to 99.6 μL of 1.33× kinase buffer.
5) ATP solution: 10 mM of ATP was diluted to 760 μM with 1.33× kinase buffer to prepare ATP solution.
6) Development solution: Development reagent B was diluted with Development buffer at a ratio of 1:200.
1) Kinase reaction (10 μL system)
2.5 μL of 4× test compound was added to each reaction well of the 384 plate, and the corresponding volume of 8% DMSO was added to the control well. The plate was placed on ice. 5 μL of a mixture of kinase/peptide substrate, 2.5 μL of kinase buffer and ATP solution were successively added to each well. Three control groups were set up: Group C1 contains only kinase buffer, group C2 contains the mixture of kinase/peptide substrate, kinase buffer and ATP, and group C3 contains 5 μL of PP solution. After adding the reaction components, the 384-well plate was sealed and incubated at 25-30° C. for 1 h in dark.
5 μL of Development solution was added to each well, sealed and incubated at 25-30° C. for another 1 h in dark.
3) Reaction stopping and plate reading
5 μL of stopping solution was added to each well. The Coumarin value (excitation at 400 nm, emission at 445 nm) and Fluorescein value (excitation at 400 nm, emission at 520 nm) were measured, respectively.
ER (emission ratio): Coumarin emission read-out (445 nm)/Fluorescein emission read-out (520 nm); • C3 445 nm: 100% phosphorylated Coumarin emission read-out; • C3 520 nm: 100% phosphorylated Fluorescein emission read-out; • C1 445 nm: 0% phosphorylated Coumarin emission read-out; • C1 520 nm: 0% phosphorylated Fluorescein emission read-out. Inhibition rate % (IR)=[1−% phosphorylation ratetest sample/100% phosphorylation ratecontrol]×100%
% phosphorylation ratetest sample: phosphorylation rate of the test compound; • 100% phosphorylation ratecontrol: phosphorylation rate of C3 control group.
5. IC50 values: calculated by using software XL-Fit™ (version 5.3) supplied by ID Business Solutions (Guildford, UK), which is an additional software to Microsoft Excel.

[2] = target: CSF1R phosphorylation in THP-1 cells (Homo sapiens (Human), UniProt P07333); test: Detection of CSF1R phosphorylation activity at cell level (THP-1, M-CSF stimulated, ELISA); format: cell-based; details: p-CSF1R ELISA, compound 60 min, 300 ng/mL M-CSF 1 min
CSF1R phosphorylation in THP-1 cells, sequence (P07333 20-972): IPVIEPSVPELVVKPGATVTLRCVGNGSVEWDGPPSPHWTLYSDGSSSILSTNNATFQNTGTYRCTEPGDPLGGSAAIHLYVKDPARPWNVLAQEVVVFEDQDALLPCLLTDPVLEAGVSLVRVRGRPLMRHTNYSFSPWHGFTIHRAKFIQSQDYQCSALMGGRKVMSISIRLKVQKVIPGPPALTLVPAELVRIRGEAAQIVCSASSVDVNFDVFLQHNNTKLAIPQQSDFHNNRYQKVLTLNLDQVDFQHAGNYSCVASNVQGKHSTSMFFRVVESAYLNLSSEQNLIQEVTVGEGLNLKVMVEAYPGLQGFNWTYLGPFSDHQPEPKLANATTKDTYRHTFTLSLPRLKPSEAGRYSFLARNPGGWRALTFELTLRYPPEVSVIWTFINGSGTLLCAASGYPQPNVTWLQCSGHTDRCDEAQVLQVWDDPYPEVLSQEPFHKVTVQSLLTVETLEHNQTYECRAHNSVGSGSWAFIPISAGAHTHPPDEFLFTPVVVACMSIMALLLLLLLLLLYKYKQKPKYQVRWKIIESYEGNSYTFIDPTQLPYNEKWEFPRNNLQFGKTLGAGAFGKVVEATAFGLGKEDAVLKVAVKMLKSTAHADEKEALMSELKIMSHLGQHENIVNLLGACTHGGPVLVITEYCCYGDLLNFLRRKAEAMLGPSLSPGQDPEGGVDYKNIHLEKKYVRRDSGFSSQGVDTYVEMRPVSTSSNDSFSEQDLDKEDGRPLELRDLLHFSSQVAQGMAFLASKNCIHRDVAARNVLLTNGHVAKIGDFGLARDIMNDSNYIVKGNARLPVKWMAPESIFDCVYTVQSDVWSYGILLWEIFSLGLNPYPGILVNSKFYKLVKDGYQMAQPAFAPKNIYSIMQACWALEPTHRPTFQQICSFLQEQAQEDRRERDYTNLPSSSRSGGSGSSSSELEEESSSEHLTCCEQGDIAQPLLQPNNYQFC
Method: Detection of CSF1R Phosphorylation Activity at Cell Level
THP-1 (ATCC), human acute monocytic leukemia cells. The cells were cultured in an RPMI 1640 medium containing 10% FBS.
(§1) 2. Reagents and instruments
• Human phosphorylation-CSF1R ELISA kit: R&D, #DYC3268-2; • RPMI 1640 culture solution: GIBCO, 910491; • Human M-CSF recombinant cytokine: R&D, 9216-MC-500; • Cell lysis buffer: Cell Signal, 99803S; • 1×PBS buffer (1 L): 8.0 g of NaCl, 0.2 g of KCl, 3.58 g of Na2HPO4-12H2O, 0.24 g of KH2PO4 were dissolved in 1 L of dd H2O, and the pH was adjusted to 7.4; • Blocking solution: PBS buffer containing 1% BSA; • PBST washing liquid: PBS buffer containing 0.05% Tween-20; • Chromogenic substrate: R&D, #DY999; • 2N H2SO4; • Microwell plate reader: Labsystems Multiskan K3: Thermo; Envision: Perkin Elmer; • ELISA plate: Corning, #9018; • Cell culture plate: Facol, #353027. 3. Treatment of cells and preparation of lysis buffer
THP-1 cells were resuspended in RPMI-1640 culture solution containing 2% FBS, and the culture was added to a 96-well plate at a density of 5×10^4/well, 50 μL/well, and cultured in a cell incubator at 5% CO2 and 37° C. overnight; The test compound was diluted with a serum-free RPMI-1640 medium to 3, 1.1, 0.37, 0.12, 0.04, 0.014, 0.005 and 0.002 μM, and the concentration of DMSO was 5%. 5 μL of the diluted compound was added to the 50 μL cell culture system, the culture was cultured in a 5% CO2, 37° C. cell incubator for 60 min, 300 ng/mL of M-CSF was added to the cells, and the mixture was stimulated in the 37° C. cell incubator for 1 min, added 50 μL of cell lysis buffer, and stored in a refrigerator at −80° C.
100 μL/well of the p-CSF1R capture antibody diluted to 0.8 μg/mL with PBS was added to the ELISA plate, and the plate was coated on a shaker at room temperature overnight. The culture was washed with PBST, and then added blocking solution and incubated at room temperature for 2 h. The culture was washed with PBST, added 90 μL of cell lysis buffer, and incubated on a shaker at 25° C. for 2 h. The plate was washed with PBST three times, added 100 μL of anti-p-tyrosine-HRP detection antibody diluted with 0.1% PBS-BSA diluent, and incubated on a shaker at 25° C. for 2 h. The plate was washed with PBST washing liquid, added 100 μL of chromogenic substrate and incubated at room temperature for 10-20 min. The reaction was stopped by adding 50 μL of 2N H2SO4. The optical density signal (450/570 nm) of each well was detected in Labsystems Multiskan K3 or Envision.
wherein • Drug-treated well read-out: indicating the optical density signal of a cell well with the test compound treatment. • Background read-out: indicating the optical density signal of a well without cells but with cell lysis buffer. • Cell well read-out: indicating the optical density signal of a cell well not treated with the compound. 6. Calculation of IC50: obtained by using XL-Fit 5.3 software. 7. Test results

[3] = test system: Ba/F3^BCR-FMS-11 cells; test: Cell proliferation experiment (Ba/F3^BCR-FMS-11, cckit-8); format: cell-based, mouse; details: Ba/F3^BCR-FMS-11 cell proliferation
Method: Cell Proliferation Experiment
Ba/F3^BCR-FMS-11, mouse primary B lymphocytes stably expressing the BCR-FMS fusion gene. The cells were cultured in an RPMI 1640 medium containing 10% FBS.
as §1
• cckit-8 kit: Dojindo, 9 CK04; • Envision: Perkin Elmer; • Cell culture plate: Facol, 9353027. 3. Experimental steps
The BCR-FMS fusion gene was transfected into Ba/F3 cells, and the cell line Ba/F3^BCR-FMS-11 that stably expresses BCR-FMS and grows depending on CSF-1R was screened. Ba/F3^BCR-FMS-11 cell proliferation experiments is completed by using the Cell Counting kit cckit-8 in a 96-well plate. In a 96-well plate, 5000/well of Ba/F3^BCR-FMS-11 cells were inoculated at 100 μL/well. […] 10 μL of the compound dilutions with the above 8 concentrations were added to the culture cell wells. The culture was incubated in a 37° C. and 5% CO2 cell incubator for 72 hours. 10 μL of Cell Counting kit cckit-8 detection reagent was added to each well, and incubated at 37° C. and 5% CO2 in a cell incubator for another 1 h. The optical density absorption value at 450 nm of each well was detected by using Perkin Elmer Envision instrument.
wherein • Drug-treated well read-out: indicating the optical density signal of a cell well with the test compound treatment. • Cell well read-out: indicating the optical density signal of a cell well not treated with the test compound (only 0.5% DMSO). • Background read-out: indicating the optical density signal of a well with the cell medium. 5. Calculation of IC50: obtained by using XL-Fit 5.3 software. 6. Test results

Recombinant human CSF1R kinase, sequence (P07333 20-972): as above

| Structure (SMILES) | IC50 [1] [nM] | IC50 [2] [nM] | IC50 ([3]; Mus musculus, 72 h) [nM] | IC50 ([3]; 72 hours) [nM] | IC50 ([3]; Mus musculus, 72 hours) [nM] |
| --- | --- | --- | --- | --- | --- |
| CC(C)n1cncc(C(=O)Nc2ccc(Oc3ccnc(-c4cnn(C)c4)c3)cn2)c1=O [Compound 56] | 4 | 21 | 8 | – | – |
| CC(C)n1cc(Cl)cc(C(=O)Nc2ccc(Oc3ccnc(-c4cnn(C)c4)c3)cn2)c1=O [Compound 57] | 24 | 43 | 12 | – | – |
| Cn1cc(-c2cc(Oc3ccc(NC(=O)c4nccn(C)c4=O)nc3)ccn2)cn1 [Compound 58] | 69 | 126 | 179 | – | – |
| CC(C)n1nccc(C(=O)Nc2ccc(Oc3ccnc(-c4cnn(C)c4)c3)cn2)c1=O [Compound 60] | 8 | 14 | 15 | – | – |
| Cn1cc(-c2cc(Oc3ccc(NC(=O)c4cccn(C(F)F)c4=O)nc3)ccn2)cn1 [Compound 61] | 45 | 75 | 87 | – | – |
| Cc1ncc(-c2cc(Oc3ccc(NC(=O)c4cnc(C)n(C)c4=O)nc3)ccn2)s1 [Compound 62] | 20 | 9 | 32 | – | – |
| Cc1ncc(C(=O)Nc2ccc(Oc3ccnc(Nc4cnn(C)c4)c3)cn2)c(=O)n1C [Compound 63] | 9 | 5 | 8 | – | – |
| Cc1ncc(C(=O)Nc2ccc(Oc3ccnc(-c4ccc5nccn5c4)c3)cn2)c(=O)n1C [Compound 64] | 16 | 21 | 40 | – | – |
| Cc1ncc(C(=O)Nc2ccc(Oc3ccnc(Nc4ccccn4)c3)cn2)c(=O)n1C [Compound 65] | 5 | 10 | 8 | – | – |
| Cc1ncc(C(=O)Nc2ccc(Oc3ccnc(-c4ccn5ccnc5c4)c3)cn2)c(=O)n1C [Compound 66] | 54 | 23 | 55 | – | – |
| Cn1cc(Nc2cc(Oc3ccc(NC(=O)c4cccn(C)c4=O)nc3)ccn2)cn1 [Compound 67] | 33 | 9 | – | 25 | – |
| Cc1ncc(C(=O)Nc2ccc(Oc3ccnc(Nc4ccn(C(F)F)n4)c3)cn2)c(=O)n1C [Compound 68] | 7 | 6 | 12 | – | – |
| O=C(Nc1ccc(Oc2ccnc(Nc3ccn(C(F)F)n3)c2)cn1)c1cnc2n(c1=O)CCC2 [Compound 69] | 3 | 3 | 4 | – | – |
| CC(C)n1cccc(C(=O)Nc2ccc(Oc3ccnc(-c4ccnn4C)c3)cn2)c1=O [Compound 70] | 32 | 203 | 225 | – | – |
| CC(C)n1cccc(C(=O)Nc2ccc(Oc3ccnc(-c4ccn(C)n4)c3)cn2)c1=O [Compound 71] | 10 | 36 | 51 | – | – |
| Cn1cc(-c2cc(Oc3ccc(NC(=O)c4cc5ccccc5n(C)c4=O)nc3)ccn2)cn1 [Compound 72] | 14 | 16 | 7 | – | – |
| CC(C)c1ncc(C(=O)Nc2ccc(Oc3ccnc(-c4cnn(C)c4)c3)cn2)c(=O)n1C [Compound 73] | 11 | 31 | 17 | – | – |
| Cc1c(F)cc(C(=O)Nc2ccc(Oc3ccnc(Nc4cnn(C)c4)c3)cn2)c(=O)n1C [Compound 75] | 8 | 14 | 7 | – | – |
| CN(C)CCn1cccc(C(=O)Nc2ccc(Oc3ccnc(-c4cnn(C)c4)c3)cn2)c1=O [Compound 81, 1-(2-(dimethylamino)ethyl)-N-(5-((2-(1-methyl-1H-pyrazol-4-yl)pyridin-4-yl)oxy)pyridin-2-yl)-2-oxo-1,2-dihydropyridine-3-carboxamide] | 34 | 145 | – | – | 143 |

Now from value to molecule, other results behind:

| IC50 [1] [nM] | IC50 [2] [nM] | IC50 ([3]; Mus musculus, 72 h) [nM] | IC50 ([3]; 72 hours) [nM] | Structure (SMILES) | IC50 ([3]; Mus musculus, 72 hours) [nM] |
| --- | --- | --- | --- | --- | --- |
| 5 | 18 | 4 | – | Cc1c(F)cc(C(=O)Nc2ccc(Oc3ccnc(Nc4ccnn4C)c3)cn2)c(=O)n1C [Compound 76] | – |
| 6 | 10 | 5 | – | Cn1nccc1Nc1cc(Oc2ccc(NC(=O)c3cc(F)cn(C)c3=O)nc2)ccn1 [Compound 77] | – |
| 15 | 11 | 11 | – | Cn1cc(Nc2cc(Oc3ccc(NC(=O)c4cc(F)cn(C)c4=O)nc3)ccn2)cn1 [Compound 78] | – |
| 4 | 3 | 5 | – | Cn1cc(-c2cc(Oc3ccc(NC(=O)c4cc(F)cn(C)c4=O)nc3)ccn2)cn1 [Compound 80] | – |
| 6 | 11 | 9 | – | COCCn1cccc(C(=O)Nc2ccc(Oc3ccnc(-c4cnn(C)c4)c3)cn2)c1=O [Compound 82] | – |
| 9 | 13 | 7 | – | Cn1cc(-c2cc(Oc3ccc(NC(=O)c4cccn(C5COC5)c4=O)nc3)ccn2)cn1 [Compound 83] | – |
| 6 | 10 | 8 | – | Cn1cc(-c2cc(Oc3ccc(NC(=O)c4cccn(CCO)c4=O)nc3)ccn2)cn1 [Compound 84] | – |
| 5 | 5 | 7 | – | Cn1cc(-c2cc(Oc3ccc(NC(=O)c4cccn(C)c4=O)nc3)ccn2)cn1 [Compound 85] | – |
| 5 | 7 | 7 | – | CC(C)n1cccc(C(=O)Nc2ccc(Oc3ccnc(-c4cnn(C)c4)c3)cn2)c1=O [Compound 86] | – |
| 3 | 10 | 8 | – | C=CCn1cccc(C(=O)Nc2ccc(Oc3ccnc(-c4cnn(C)c4)c3)cn2)c1=O [Compound 88] | – |
| 8 | 16 | 8 | – | Cn1cc(-c2cc(Oc3ccc(NC(=O)c4cccn(C5CCC5)c4=O)nc3)ccn2)cn1 [Compound 89] | – |
| 6 | 10 | 2 | – | Cn1cc(-c2cc(Oc3ccc(NC(=O)c4ccc(C(F)(F)F)n(C)c4=O)nc3)ccn2)cn1 [Compound 90] | – |
| 3 | 9 | 3 | – | Cc1ccc(C(=O)Nc2ccc(Oc3ccnc(-c4cnn(C)c4)c3)cn2)c(=O)n1C [Compound 91] | – |
| 17 | 61 | 13 | – | Cc1nc(NC(=O)c2cccn(C(C)C)c2=O)ccc1Oc1ccnc(-c2cnn(C)c2)c1 [Compound 93, 1-isopropyl-N-(6-methyl-5-((2-(1-methyl-1H-pyrazol-4-yl)pyridin-4-yl)oxy)pyridin-2-yl)-2-oxo-1,2-dihydropyridine-3-carboxamide] | – |
